# From US10392391B2 (Vertex Pharmaceuticals Incorporated, priority 2012, dated 2019)
# pKi: −log10 of the molar value.
# Molecular target: ATR kinase (full-length ATR) (Homo sapiens (Human), UniProt Q13535)
# Test: ATR inhibition assay (radioactive-phosphate incorporation)
# Format: biochemical
# Settings: not given
# Description: Compounds were screened for their ability to inhibit ATR kinase using a radioactive-phosphate incorporation assay. Assays were carried out in a mixture of 50 mM Tris/HCl (pH 7.5), 10 mM MgCl2 and 1 mM DTT. Final substrate concentrations were 10 μM [γ-33P]ATP (3mCi 33P ATP/mmol ATP, Perkin Elmer) and 800 μM target peptide ([…]) (SEQ ID NO:1).
# Assays were carried out at 25° C. in the presence of 5 nM full-length ATR. An assay stock buffer solution was prepared containing all of the reagents listed above, with the exception of ATP and the test compound of interest. 13.5 μL of the stock solution was placed in a 96 well plate followed by addition of 2 μL of DMSO stock containing serial dilutions of the test compound (typically starting from a final concentration of 15 μM with 3-fold serial dilutions) in duplicate (final DMSO concentration 7%). The plate was pre-incubated for 10 minutes at 25° C. and the reaction initiated by addition of 15 μL [γ-33P]ATP (final concentration 10 μM).
# The reaction was stopped after […] by the addition of 30 μL 0.1M phosphoric acid containing 2 mM ATP. A multiscreen phosphocellulose filter 96-well plate (Millipore, Cat no. MAPHN0B50) was pretreated with 100 μL 0.2M phosphoric acid prior to the addition of […] of the stopped assay mixture. The plate was washed with 5×200 μL 0.2M phosphoric acid. After drying, 100 μL Optiphase ‘SuperMix’ liquid scintillation cocktail (Perkin Elmer) was added to the well prior to scintillation counting (1450 Microbeta Liquid Scintillation Counter, Wallac).
# After removing mean background values for all of the data points, Ki(app) data were calculated from non-linear regression analysis of the initial rate data using the Prism software package (GraphPad Prism version 3.0cx for Macintosh, GraphPad Software, San Diego Calif., USA).
# Chain of ATR kinase (full-length ATR) (Q13535 whole entry): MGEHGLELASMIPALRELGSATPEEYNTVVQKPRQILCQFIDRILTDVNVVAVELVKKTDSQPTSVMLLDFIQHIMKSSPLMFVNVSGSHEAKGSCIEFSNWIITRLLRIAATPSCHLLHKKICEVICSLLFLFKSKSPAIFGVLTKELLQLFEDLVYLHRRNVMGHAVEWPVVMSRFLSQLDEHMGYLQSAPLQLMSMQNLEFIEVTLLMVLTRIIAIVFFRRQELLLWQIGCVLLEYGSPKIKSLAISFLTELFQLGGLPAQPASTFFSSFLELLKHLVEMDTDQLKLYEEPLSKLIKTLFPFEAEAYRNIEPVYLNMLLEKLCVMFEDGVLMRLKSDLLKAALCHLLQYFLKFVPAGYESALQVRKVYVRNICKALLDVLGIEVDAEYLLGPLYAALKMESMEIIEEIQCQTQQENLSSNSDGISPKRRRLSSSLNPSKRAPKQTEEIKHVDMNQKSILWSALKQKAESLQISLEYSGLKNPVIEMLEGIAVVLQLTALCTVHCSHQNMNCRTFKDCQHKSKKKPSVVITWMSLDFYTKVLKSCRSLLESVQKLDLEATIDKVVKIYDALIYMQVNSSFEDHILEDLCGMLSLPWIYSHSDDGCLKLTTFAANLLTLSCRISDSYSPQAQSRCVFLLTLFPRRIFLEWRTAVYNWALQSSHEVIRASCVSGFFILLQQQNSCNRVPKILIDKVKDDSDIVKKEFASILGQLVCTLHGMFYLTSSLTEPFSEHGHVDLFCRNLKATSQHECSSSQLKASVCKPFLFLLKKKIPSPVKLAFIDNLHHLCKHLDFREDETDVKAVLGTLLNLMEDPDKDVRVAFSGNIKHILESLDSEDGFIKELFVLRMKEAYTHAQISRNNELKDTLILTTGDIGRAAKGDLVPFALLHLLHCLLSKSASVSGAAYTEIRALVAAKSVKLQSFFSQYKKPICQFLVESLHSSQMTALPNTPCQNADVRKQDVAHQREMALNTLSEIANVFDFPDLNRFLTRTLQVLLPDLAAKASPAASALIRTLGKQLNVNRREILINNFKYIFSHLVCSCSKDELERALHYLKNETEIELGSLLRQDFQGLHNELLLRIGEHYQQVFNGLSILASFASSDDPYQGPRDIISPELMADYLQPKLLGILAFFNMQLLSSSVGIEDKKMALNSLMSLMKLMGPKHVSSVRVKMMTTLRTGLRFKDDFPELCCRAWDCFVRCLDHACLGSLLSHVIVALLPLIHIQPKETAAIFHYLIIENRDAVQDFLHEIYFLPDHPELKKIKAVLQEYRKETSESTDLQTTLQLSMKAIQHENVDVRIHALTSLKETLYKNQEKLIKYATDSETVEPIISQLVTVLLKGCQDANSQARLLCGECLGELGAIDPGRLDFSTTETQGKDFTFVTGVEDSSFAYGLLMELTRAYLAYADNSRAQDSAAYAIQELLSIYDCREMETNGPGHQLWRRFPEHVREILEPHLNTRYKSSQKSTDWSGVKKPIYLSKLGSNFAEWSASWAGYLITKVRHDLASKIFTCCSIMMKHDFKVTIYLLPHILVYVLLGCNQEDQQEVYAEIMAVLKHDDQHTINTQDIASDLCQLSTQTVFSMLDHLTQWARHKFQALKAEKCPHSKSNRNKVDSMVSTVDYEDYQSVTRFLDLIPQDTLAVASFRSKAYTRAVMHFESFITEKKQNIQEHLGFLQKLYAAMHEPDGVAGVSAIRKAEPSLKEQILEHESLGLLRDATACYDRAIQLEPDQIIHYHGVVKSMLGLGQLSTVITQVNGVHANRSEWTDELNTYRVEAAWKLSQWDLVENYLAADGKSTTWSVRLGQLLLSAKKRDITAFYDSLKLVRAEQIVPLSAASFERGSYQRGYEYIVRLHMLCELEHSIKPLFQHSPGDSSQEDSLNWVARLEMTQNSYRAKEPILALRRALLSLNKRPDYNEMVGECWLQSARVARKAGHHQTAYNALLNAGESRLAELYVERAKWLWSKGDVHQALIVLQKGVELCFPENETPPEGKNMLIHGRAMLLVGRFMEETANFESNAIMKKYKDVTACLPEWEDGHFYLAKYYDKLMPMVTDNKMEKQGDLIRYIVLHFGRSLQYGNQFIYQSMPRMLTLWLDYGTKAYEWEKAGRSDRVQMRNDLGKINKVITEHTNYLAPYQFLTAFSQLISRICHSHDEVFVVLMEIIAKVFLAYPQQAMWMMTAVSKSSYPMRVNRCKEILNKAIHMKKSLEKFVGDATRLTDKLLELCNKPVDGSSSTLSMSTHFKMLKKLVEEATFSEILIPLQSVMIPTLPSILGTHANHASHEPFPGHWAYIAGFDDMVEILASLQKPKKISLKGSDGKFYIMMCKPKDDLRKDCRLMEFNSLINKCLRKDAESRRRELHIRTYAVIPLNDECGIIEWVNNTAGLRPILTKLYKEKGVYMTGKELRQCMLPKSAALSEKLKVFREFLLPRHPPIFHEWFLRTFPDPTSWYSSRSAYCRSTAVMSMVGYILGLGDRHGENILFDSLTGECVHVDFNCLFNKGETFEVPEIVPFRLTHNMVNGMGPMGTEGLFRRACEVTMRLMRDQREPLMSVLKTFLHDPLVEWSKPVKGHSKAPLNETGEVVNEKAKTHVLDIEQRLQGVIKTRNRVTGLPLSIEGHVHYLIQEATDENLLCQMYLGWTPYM
row,pKi,SMILES
1,5.30 to 6.00,"Nc1nn2cc(F)cnc2c1C(=O)Nc1cnccc1CN1CCCC1=O [I-C-76, 2-amino-6-fluoro-N-(4-((2-oxopyrrolidin-1-yl)methyl)pyridin-3-yl)pyrazolo[1,5-a]pyrimidine-3-carboxamide]"

# Same assay, conditions: Ki(app), 5 nM full-length ATR, 10 μM ATP, 25° C.
row,SMILES,pKi
1,"CN1CCN(C(=O)c2cnc(-c3ccncc3NC(=O)c3c(N)nn4cc(F)cnc34)c(Cl)c2)CC1 [I-C-46, 2-amino-N-(3-chloro-5-(4-methylpiperazine-1-carbonyl)-[2,4′-bipyridin]-3′-yl)-6-fluoropyrazolo[1,5-a]pyrimidine-3-carboxamide]",6.00 to 8.00
2,"Nc1nn2cc(F)cnc2c1C(=O)Nc1cnccc1C1CCN(S(=O)(=O)C2CC2)CC1 [I-C-47, 2-amino-N-(4-(1-(cyclopropylsulfonyl)piperidin-4-yl)pyridin-3-yl)-6-fluoropyrazolo[1,5-a]pyrimidine-3-carboxamide]",6.00 to 8.00
3,"Nc1nn2cc(F)cnc2c1C(=O)Nc1cnccc1-c1ccc(C(=O)N2CCN3CCC2CC3)cc1 [I-C-48, N-(4-(4-(1,4-diazabicyclo[3.2.2]nonane-4-carbonyl)phenyl)pyridin-3-yl)-2-amino-6-fluoropyrazolo[1,5-a]pyrimidine-3-carboxamide]",6.00 to 8.00
4,"Nc1nn2cc(F)cnc2c1C(=O)Nc1cnccc1-c1ccc(C(=O)N2CCN(C3COC3)CC2)cc1 [I-C-49, 2-amino-6-fluoro-N-(4-(4-(4-(oxetan-3-yl)piperazine-1-carbonyl)phenyl)pyridin-3-yl)pyrazolo[1,5-a]pyrimidine-3-carboxamide]",6.00 to 8.00
5,"Nc1nn2cc(F)cnc2c1C(=O)Nc1cnccc1-c1ccc(C(=O)N2CCN(C3COC3)CC2)cc1F [I-C-51, 2-amino-6-fluoro-N-(4-(2-fluoro-4-(4-(oxetan-3-yl)piperazine-1-carbonyl)phenyl)pyridin-3-yl)pyrazolo[1,5-a]pyrimidine-3-carboxamide]",6.00 to 8.00
6,"Nc1nn2cc(F)cnc2c1C(=O)Nc1cnccc1-c1ccc(C(=O)N2CCN(C3COC3)CC2)nc1 [I-C-52, 2-amino-6-fluoro-N-(6-(4-(oxetan-3-yl)piperazine-1-carbonyl)-[3,4′-bipyridin]-3′-yl)pyrazolo[1,5-a]pyrimidine-3-carboxamide]",6.00 to 8.00
7,"Nc1nn2cc(F)cnc2c1C(=O)Nc1cnccc1-c1ccc(C(=O)N2CCC(N3CCCC3)CC2)nc1 [I-C-53, 2-amino-6-fluoro-N-(6-(4-(pyrrolidin-1-yl)piperidine-1-carbonyl)-[3,4′-bipyridin]-3′-yl)pyrazolo[1,5-a]pyrimidine-3-carboxamide]",6.00 to 8.00
8,"Nc1nn2cc(F)cnc2c1C(=O)Nc1cnccc1-c1ccc(C(=O)N2CCC(N3CCC3)CC2)nc1 [I-C-54, 2-amino-N-(6-(4-(azetidin-1-yl)piperidine-1-carbonyl)-[3,4′-bipyridin]-3′-yl)-6-fluoropyrazolo[1,5-a]pyrimidine-3-carboxamide]",6.00 to 8.00
9,"CS(=O)(=O)c1ccc(-c2ccncc2NC(=O)c2c(N)nn3cc(F)cnc23)cc1 [I-C-61, 2-amino-6-fluoro-N-(4-(4-(methylsulfonyl)phenyl)pyridin-3-yl)pyrazolo[1,5-a]pyrimidine-3-carboxamide]",6.00 to 8.00
10,"Cc1nccnc1-c1ccncc1NC(=O)c1c(N)nn2cc(F)cnc12 [I-C-62, 2-amino-6-fluoro-N-(4-(3-methylpyrazin-2-yl)pyridin-3-yl)pyrazolo[1,5-a]pyrimidine-3-carboxamide]",6.00 to 8.00
11,"CN1CCOC[C@@H]1c1ccc(-c2ccncc2NC(=O)c2c(N)nn3cc(F)cnc23)cc1 [I-C-66, (S)-2-amino-6-fluoro-N-(4-(4-(4-methylmorpholin-3-yl)phenyl)pyridin-3-yl)pyrazolo[1,5-a]pyrimidine-3-carboxamide]",6.00 to 8.00
12,"Cc1cncnc1-c1ccncc1NC(=O)c1c(N)nn2cc(F)cnc12 [I-C-67, 2-amino-6-fluoro-N-(4-(5-methylpyrimidin-4-yl)pyridin-3-yl)pyrazolo[1,5-a]pyrimidine-3-carboxamide]",6.00 to 8.00
13,"Nc1nn2cc(F)cnc2c1C(=O)Nc1cnccc1C1CCN(C(=O)C2CC2)CC1 [I-C-70, 2-amino-N-(4-(1-(cyclopropanecarbonyl)piperidin-4-yl)pyridin-3-yl)-6-fluoropyrazolo[1,5-a]pyrimidine-3-carboxamide]",6.00 to 8.00
14,"N#CC1(C(=O)N2CCC(c3ccncc3NC(=O)c3c(N)nn4cc(F)cnc34)CC2)CC1 [I-C-71, 2-amino-N-(4-(1-(1-cyanocyclopropanecarbonyl)piperidin-4-yl)pyridin-3-yl)-6-fluoropyrazolo[1,5-a]pyrimidine-3-carboxamide]",6.00 to 8.00
15,"Cn1ccc2c(NC(=O)c3c(N)nn4cc(F)cnc34)cncc21 [I-C-74, 2-amino-6-fluoro-N-(1-methyl-1H-pyrrolo[2,3-c]pyridin-4-yl)pyrazolo[1,5-a]pyrimidine-3-carboxamide]",6.00 to 8.00

# Second part, the compound after the results:
row,pKi,SMILES
1,6.00 to 8.00,"Cn1ccnc1-c1ccncc1NC(=O)c1c(N)nn2cc(F)cnc12 [I-C-55, 2-amino-6-fluoro-N-(4-(1-methyl-1H-imidazol-2-yl)pyridin-3-yl)pyrazolo[1,5-a]pyrimidine-3-carboxamide]"
2,6.00 to 8.00,"Cn1cncc1-c1ccncc1NC(=O)c1c(N)nn2cc(F)cnc12 [I-C-56, 2-amino-6-fluoro-N-(4-(1-methyl-1H-imidazol-5-yl)pyridin-3-yl)pyrazolo[1,5-a]pyrimidine-3-carboxamide]"
3,6.00 to 8.00,"Cn1nccc1-c1ccncc1NC(=O)c1c(N)nn2cc(F)cnc12 [I-C-57, 2-amino-6-fluoro-N-(4-(1-methyl-1H-pyrazol-5-yl)pyridin-3-yl)pyrazolo[1,5-a]pyrimidine-3-carboxamide]"
4,6.00 to 8.00,"Cn1c(-c2ccncc2NC(=O)c2c(N)nn3cc(F)cnc23)cccc1=O [I-C-58, 2-amino-6-fluoro-N-(1-methyl-6-oxo-1,6-dihydro-[2,4′-bipyridin]-3′-yl)pyrazolo[1,5-a]pyrimidine-3-carboxamide]"
5,6.00 to 8.00,"Cn1cc(-c2ccncc2NC(=O)c2c(N)nn3cc(F)cnc23)ccc1=O [I-C-59, 2-amino-6-fluoro-N-(1-methyl-6-oxo-1,6-dihydro-[3,4′-bipyridin]-3′-yl)pyrazolo[1,5-a]pyrimidine-3-carboxamide]"
6,6.00 to 8.00,"Nc1nn2cc(F)cnc2c1C(=O)Nc1cnccc1-c1ccccn1 [I-C-60, N-([2,4′-bipyridin]-3′-yl)-2-amino-6-fluoropyrazolo[1,5-a]pyrimidine-3-carboxamide]"
7,6.00 to 8.00,"Nc1nn2cc(F)cnc2c1C(=O)Nc1cnccc1-c1ccc(S(=O)(=O)N2CCC2)cc1 [I-C-64, 2-amino-N-(4-(4-(azetidin-1-ylsulfonyl)phenyl)pyridin-3-yl)-6-fluoropyrazolo[1,5-a]pyrimidine-3-carboxamide]"
8,6.00 to 8.00,"Cn1ncnc1-c1ccncc1NC(=O)c1c(N)nn2cc(F)cnc12 [I-C-65, 2-amino-6-fluoro-N-(4-(1-methyl-1H-1,2,4-triazol-5-yl)pyridin-3-yl)pyrazolo[1,5-a]pyrimidine-3-carboxamide]"
9,6.00 to 8.00,"Cn1ccc(-c2ccncc2NC(=O)c2c(N)nn3cc(F)cnc23)n1 [I-C-68, 2-amino-6-fluoro-N-(4-(1-methyl-1H-pyrazol-3-yl)pyridin-3-yl)pyrazolo[1,5-a]pyrimidine-3-carboxamide]"
10,6.00 to 8.00,"CC(=O)N1CCC(c2ccncc2NC(=O)c2c(N)nn3cc(F)cnc23)CC1 [I-C-69, N-(4-(1-acetylpiperidin-4-yl)pyridin-3-yl)-2-amino-6-fluoropyrazolo[1,5-a]pyrimidine-3-carboxamide]"
11,6.00 to 8.00,"Cn1nncc1-c1ccncc1NC(=O)c1c(N)nn2cc(F)cnc12 [I-C-72, 2-amino-6-fluoro-N-(4-(1-methyl-1H-1,2,3-triazol-5-yl)pyridin-3-yl)pyrazolo[1,5-a]pyrimidine-3-carboxamide]"
12,6.00 to 8.00,"CN1CCC(c2ccncc2NC(=O)c2c(N)nn3cc(F)cnc23)CC1=O (centres unmarked) [I-C-73, 2-amino-6-fluoro-N-(4-(1-methyl-2-oxopiperidin-4-yl)pyridin-3-yl)pyrazolo[1,5-a]pyrimidine-3-carboxamide]"
13,6.00 to 8.00,"Nc1nn2cc(F)cnc2c1C(=O)Nc1cnccc1C1CCOC1 (centres unmarked) [I-C-75, 2-amino-6-fluoro-N-(4-(tetrahydrofuran-3-yl)pyridin-3-yl)pyrazolo[1,5-a]pyrimidine-3-carboxamide]"
14,6.00 to 8.00,"Cc1ncc(-c2ccncc2NC(=O)c2c(N)nn3cc(F)cnc23)n1C [I-C-77, 2-amino-N-(4-(1,2-dimethyl-1H-imidazol-5-yl)pyridin-3-yl)-6-fluoropyrazolo[1,5-a]pyrimidine-3-carboxamide]"
15,6.00 to 8.00,"Cc1ncn(C)c1-c1ccncc1NC(=O)c1c(N)nn2cc(F)cnc12 [I-C-78, 2-amino-N-(4-(1,4-dimethyl-1H-imidazol-5-yl)pyridin-3-yl)-6-fluoropyrazolo[1,5-a]pyrimidine-3-carboxamide]"
16,6.00 to 8.00,"CCn1cncc1-c1ccncc1NC(=O)c1c(N)nn2cc(F)cnc12 [I-C-80, 2-amino-N-(4-(1-ethyl-1H-imidazol-5-yl)pyridin-3-yl)-6-fluoropyrazolo[1,5-a]pyrimidine-3-carboxamide]"
